This is an account of results in PubChem BioAssay (NCI).

One experiment deals with P388/ADR leukemia. The experiment can be described thus: NCI tumour cell line growth inhibition, 48 h.
The subject of another experiment is P388 leukemia. Put plainly: NCI tumour cell line growth inhibition, 48 h.

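Exposure lasted 48 hours, with cells grown in 96-well plates and compounds tested at five concentrations. At the TGI there is no net growth.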

For `CCCCCCc1ccc(O)cc1O`, the TGI in the experiment on P388/ADR leukemia and in the experiment with P388 leukemia was more than 100 µM each time.
